Assay results from PMC4838552 (ChemMedChem, 2016).

Key:
[1] = target: ssDNA binding to RPA70AB in the RPA70NAB construct (Homo sapiens, UniProt P27694); assay: Fluorescence-based DNA binding assay; details: Kd for ssDNA binding to RPA70AB in RPA70NAB, absence vs presence of compound
RPA70N = RPA70N (Homo sapiens, UniProt P27694); assay: FPA competition assay; assay type: binding; details: for LE (ligand efficiency): LE = 1.4*pKd/HAC, using the FPA data
Protein binding study = assay type: in vitro ADME
[2] = Caco-2 permeability study; assay type: in vitro ADME; details: human

Cc1ccc(C(=O)Nc2cc(Br)ccc2C(=O)O)cc1S(=O)(=O)Nc1ccc(Cl)c(Cl)c1 [Compound 20c, 4-Bromo-2-(3-(N-(3,4-dichlorophenyl)sulfamoyl)-4-methylbenzamido)benzoic acid]
effect on ssDNA binding to RPA [1]: does not affect ssDNA binding to RPA
LE (ligand efficiency) (RPA70N): 0.27
fraction unbound (Protein binding study): 0.002
Papp A→B [2]: 29.2 ×10⁻⁶ cm/s

Cc1ccc(C(=O)Nc2ccccc2C(=O)O)cc1S(=O)(=O)Nc1ccc(Br)cc1 [Compound 11, 2-(3-(N-(4-bromophenyl)sulfamoyl)-4-methylbenzamido)benzoic acid]
LE (ligand efficiency) (RPA70N): 0.21

Cc1ccc(C(=O)Nc2ccccc2C(=O)O)cc1S(=O)(=O)Nc1cccc(Cl)c1 [Compound 18, 2-(3-(N-(3-chlorophenyl)sulfamoyl)-4-methylbenzamido)benzoic acid]
LE (ligand efficiency) (RPA70N): 0.21
potency relative to 11 (fold less potent) (RPA70N; compared with compound 11): equipotent
